Like-named read-outs stand apart in the source and are kept apart here.
Experiments:
KDR = molecular target: T1, KDR (Homo sapiens, UniProt P35968); test: (125I)-VEGF binding inhibition on NIH3T3 cells in which KDR was forced to be expressed; conditions: KDR-expressing NIH3T3 cells, (125I)-VEGF 25 pM, 90 minutes, read-out: IC50 (concentration of 50% binding inhibition)
T1 construct: expressed in transfected cells; host or cells: NIH3T3
Description: (§1) According to the method described in a document (Cell Growth & Differentiation, vol. 7, pp. 213-221, 1996), the following tests were carried out.
(§2) NIH3T3 cells in which Flt-1 was forced to be expressed were seeded on a 24-well collagen-coated plate (7×10^4/well), and were cultured in Dulbecco's modified Eagle's medium (DMEM) including 10% bovine serum and 200 μg/ml of Geneticin G418, for 24 hours at 37° C. under an atmosphere of 5% carbon dioxide gas. The cells were preincubated in Buffer A (including 10 mM HEPES (N-2-hydroxyethylpiperazine-N′-2-ethanesulfonic acid) and 0.1% BSA (bovine serum albumin) in DMEM), for 30 minutes at 4° C. Subsequently, the medium was replaced with Buffer B (including 10 mM HEPES and 0.5% BSA in DMEM). A test solution prepared by dissolving each of the test compounds shown in Table 19 in dimethylsulfoxide and subsequently diluting the solution into a prescribed concentration with Buffer B, and (^125I)-VEGF (the final concentration was set to 25 pM) were added thereto. Binding reaction was carried out for 90 minutes at […]. After completion of the reaction, the cells were washed three times with ice-cooled Buffer A. Subsequently, 0.5 ml of 0.5M NaOH were added to each well, and the cells were lysed in 30 minutes at room temperature. The radioactivity of the lysed cells in each well was measured by means of a gamma counter, and a total binding quantity of (^125I)-VEGF was calculated. Nonspecific binding quantity of (^125I)-VEGF was measured by competition assay in the presence of 10 nM non-labeled VEGF. The specific binding quantity of (^125I)-VEGF was calculated from the difference between the total binding quantity of (^125I)-VEGF and nonspecific binding quantity of (^125I)-VEGF.
(§3) The binding inhibition index of the test compounds was calculated by the following equation. [formula]
(§4) From this value, a concentration of 50% binding inhibition (IC50) of the test compound was calculated.
Test on each of the test compounds shown in Table 20 and Table 21 was carried out employing NIH3T3 cells in which KDR was forced to be expressed, in the same manner as described in Experimental Example 1 described above.

Flt-1 = molecular target: T2, Flt-1 (Homo sapiens, UniProt P17948); test: (125I)-VEGF binding inhibition on NIH3T3 cells in which Flt-1 was forced to be expressed; conditions: Flt-1-expressing NIH3T3 cells, (125I)-VEGF 25 pM, 90 minutes; read-out: IC50 (concentration of 50% binding inhibition)
T2 construct: expressed in transfected cells; host or cells: NIH3T3
T2 sequence (P17948 27-1338): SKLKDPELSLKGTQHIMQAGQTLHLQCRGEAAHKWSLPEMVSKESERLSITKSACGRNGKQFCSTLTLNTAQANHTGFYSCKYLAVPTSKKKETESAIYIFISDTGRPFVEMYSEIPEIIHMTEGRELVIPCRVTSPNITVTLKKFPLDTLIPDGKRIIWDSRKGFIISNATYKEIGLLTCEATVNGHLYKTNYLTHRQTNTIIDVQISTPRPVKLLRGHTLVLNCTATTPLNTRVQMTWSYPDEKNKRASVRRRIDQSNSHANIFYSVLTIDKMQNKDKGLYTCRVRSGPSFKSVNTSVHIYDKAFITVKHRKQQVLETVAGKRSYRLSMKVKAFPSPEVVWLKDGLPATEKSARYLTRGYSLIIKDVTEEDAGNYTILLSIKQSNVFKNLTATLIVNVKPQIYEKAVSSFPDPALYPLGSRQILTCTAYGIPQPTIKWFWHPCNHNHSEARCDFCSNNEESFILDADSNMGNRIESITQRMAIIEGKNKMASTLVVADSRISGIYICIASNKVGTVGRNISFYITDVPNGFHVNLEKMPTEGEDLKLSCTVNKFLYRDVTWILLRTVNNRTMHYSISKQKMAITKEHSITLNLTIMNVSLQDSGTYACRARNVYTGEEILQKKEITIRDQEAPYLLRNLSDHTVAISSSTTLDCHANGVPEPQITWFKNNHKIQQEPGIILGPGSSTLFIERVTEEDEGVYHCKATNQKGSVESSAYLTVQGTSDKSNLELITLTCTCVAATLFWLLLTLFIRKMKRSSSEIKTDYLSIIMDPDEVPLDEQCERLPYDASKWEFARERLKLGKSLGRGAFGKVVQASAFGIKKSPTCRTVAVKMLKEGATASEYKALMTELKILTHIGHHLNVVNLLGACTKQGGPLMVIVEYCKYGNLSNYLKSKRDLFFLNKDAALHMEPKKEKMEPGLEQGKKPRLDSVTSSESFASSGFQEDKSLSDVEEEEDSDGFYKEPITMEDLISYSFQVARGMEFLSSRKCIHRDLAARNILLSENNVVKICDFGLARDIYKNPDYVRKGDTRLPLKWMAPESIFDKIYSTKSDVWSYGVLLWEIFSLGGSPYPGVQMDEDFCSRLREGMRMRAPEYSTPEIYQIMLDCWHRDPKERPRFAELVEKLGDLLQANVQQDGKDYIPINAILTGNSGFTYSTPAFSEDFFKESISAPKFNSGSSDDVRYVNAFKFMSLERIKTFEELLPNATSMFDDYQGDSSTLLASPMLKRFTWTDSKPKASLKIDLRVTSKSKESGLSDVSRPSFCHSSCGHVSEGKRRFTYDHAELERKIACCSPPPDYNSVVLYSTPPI
Description: as §1, §2, §3, §4

T1 sequence (P35968 20-1356): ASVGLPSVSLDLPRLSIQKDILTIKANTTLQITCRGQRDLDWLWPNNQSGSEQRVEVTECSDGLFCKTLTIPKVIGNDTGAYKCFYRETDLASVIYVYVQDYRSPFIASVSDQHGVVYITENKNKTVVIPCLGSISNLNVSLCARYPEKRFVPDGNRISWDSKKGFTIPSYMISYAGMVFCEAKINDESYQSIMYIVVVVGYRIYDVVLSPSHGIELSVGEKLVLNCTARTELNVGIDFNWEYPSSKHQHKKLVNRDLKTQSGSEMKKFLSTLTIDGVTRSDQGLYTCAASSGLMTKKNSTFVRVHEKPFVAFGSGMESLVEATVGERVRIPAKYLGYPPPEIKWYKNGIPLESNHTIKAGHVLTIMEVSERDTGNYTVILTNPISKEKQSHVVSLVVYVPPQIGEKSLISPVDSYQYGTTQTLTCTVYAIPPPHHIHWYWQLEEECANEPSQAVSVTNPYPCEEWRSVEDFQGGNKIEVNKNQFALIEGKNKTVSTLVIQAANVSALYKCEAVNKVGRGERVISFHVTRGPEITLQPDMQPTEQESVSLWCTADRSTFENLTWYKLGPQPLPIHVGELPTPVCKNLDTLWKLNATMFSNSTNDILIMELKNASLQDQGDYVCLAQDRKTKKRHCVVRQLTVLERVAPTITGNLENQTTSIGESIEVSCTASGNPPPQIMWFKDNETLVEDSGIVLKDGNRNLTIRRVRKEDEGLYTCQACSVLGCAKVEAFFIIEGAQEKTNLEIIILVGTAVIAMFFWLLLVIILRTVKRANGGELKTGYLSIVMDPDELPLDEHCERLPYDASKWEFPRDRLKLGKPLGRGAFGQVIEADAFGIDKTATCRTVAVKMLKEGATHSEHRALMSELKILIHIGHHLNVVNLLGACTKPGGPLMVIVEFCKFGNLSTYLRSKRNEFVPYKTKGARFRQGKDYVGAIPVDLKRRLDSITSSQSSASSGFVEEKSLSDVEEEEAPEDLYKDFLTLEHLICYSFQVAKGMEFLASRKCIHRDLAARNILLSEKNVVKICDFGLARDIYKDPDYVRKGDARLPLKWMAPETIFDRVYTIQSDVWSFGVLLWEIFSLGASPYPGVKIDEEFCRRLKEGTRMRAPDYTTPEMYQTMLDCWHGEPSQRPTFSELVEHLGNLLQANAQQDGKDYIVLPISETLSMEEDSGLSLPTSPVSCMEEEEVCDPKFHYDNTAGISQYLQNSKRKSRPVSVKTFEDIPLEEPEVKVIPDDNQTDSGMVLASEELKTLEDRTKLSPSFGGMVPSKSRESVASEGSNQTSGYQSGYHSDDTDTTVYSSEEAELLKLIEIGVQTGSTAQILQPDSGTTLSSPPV

## CCCCCCCCCCCCCCCCCCOc1ccc(CCC(=O)Nc2ccc(Oc3ccc(C(=O)O)cc3)c(C(=O)O)c2)cc1 [Compound 27]
other
  melting point: 213 to 215 °C
KDR; Table 20
  IC50: 510 nM
Flt-1
  IC50: 680 nM

## CCCCCCCCCCCCCCCCCCOc1ccc(CCC(=O)Nc2ccc(Oc3cccc(C(=O)O)c3)c(C(=O)O)c2)cc1 [Compound 28]
other
  melting point: 201 to 205 °C
KDR; Table 20
  IC50: 420 nM
Flt-1
  IC50: 710 nM

## CCCCCCCCCCCCCCCCCCOc1ccc(CCC(=O)N(C)c2ccc(SC)c(C(=O)O)c2)cc1 [Compound 113]
other
  melting point: 106 to 108 °C
KDR; Table 21
  IC50: 80 nM
Flt-1
  IC50: 280 nM

## CCCCCCCCCCCCCCCCCCOc1ccc(CC(=O)N(C)c2ccc(SC)c(C(=O)O)c2)cc1 [Compound 114]
KDR; Table 21
  IC50: 340 nM
Flt-1
  IC50: 420 nM

## CCCCCCCCCCCCCCCCCCOc1ccc(CC(=O)N(C)c2ccc(SCC)c(C(=O)O)c2)cc1 [Compound 154]
other
  melting point: 87 to 88.5 °C
KDR; Table 21
  IC50: 500 nM

## CCCCCCCCCCCCCCCCCCOc1ccc(CC(=O)N(C)c2ccc(SCCC)c(C(=O)O)c2)cc1 [Compound 155]
other
  melting point: 76 to 80 °C
KDR; Table 21
  IC50: 670 nM

## CCCCCCCCCCCCCCCCCCOc1ccc(CC(=O)N(C)c2ccc(SCCO)c(C(=O)O)c2)cc1 [Compound 161]
other
  melting point: 114 to 117.5 °C
KDR; Table 21
  IC50: 1300 nM

## CCCCCCCCCCCCCCCCCCOc1ccc(CC(=O)N(C)c2ccc(SCCCO)c(C(=O)O)c2)cc1 [Compound 162]
other
  melting point: 104.5 to 106.5 °C
KDR; Table 21
  IC50: 1160 nM

## CCCCCCCCCCCCCCCCCCOc1ccc(NCC(=O)Nc2ccc(SC)c(C(=O)O)c2)cc1 [Compound 163]
other
  melting point: 163.5 to 169.5 °C
KDR; Table 21
  IC50: 410 nM

## CCCCCCCCCCCCCCCCCCNc1ccc(CCC(=O)Nc2ccc(SC)c(C(=O)O)c2)cc1 [Compound 164]
other
  melting point: 151 to 158 °C
KDR; Table 21
  IC50: 570 nM

Source: patent US6720424B1, “Aminobenzoic acid derivatives” (Taisho Pharmaceutical Co., Ltd., priority 1999, dated 2004)
